In the supplement of paper PMC11061612:

Columns and labels:
Carboplatin = compound: C1CC(C1)(C(=O)[O-])C(=O)[O-].N.N.[Pt+2] [Carboplatin]; settings: max 10 µM
Procedure, shortened: (§1)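 Cancer cell lines were seeded into 1536-well plates in 7.5 μl medium (DMEM/F12 or RPMI, 10% FBS), held 24 hours at 37°C and 5% CO2, and dosed for 72 hours with final DMSO typically 0.2%. Luminescence from CellTiter-Glo 2.0, scaled between blank-well and DMSO-well means, served as viability. The single-agent IC50 was obtained from dose-response fits with a non-linear mixed effects model, each fit being a two-parameter logistic curve.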

AZD5363 = compound: C1CN(CCC1(C(=O)N[C@@H](CCO)C2=CC=C(C=C2)Cl)N)C3=NC=NC4=C3C=CN4 [AZD5363]; settings: max 10 µM
Procedure, shortened: as §1

AZD1775 = compound: C=CCn1c(=O)c2cnc(Nc3ccc(N4CCN(C)CC4)cc3)nc2n1-c1cccc(C(C)(C)O)n1 [AZD1775]
Procedure, shortened: as §1

Trametinib = compound: CC(=O)Nc1cccc(-n2c(=O)n(C3CC3)c(=O)c3c(Nc4ccc(I)cc4F)n(C)c(=O)c(C)c32)c1 [Trametinib]; settings: max 1 µM
Procedure, shortened: as §1

Paclitaxel = compound: CC(=O)O[C@H]1C(=O)[C@@]2(C)[C@H]([C@H](OC(=O)c3ccccc3)[C@]3(O)C[C@H](OC(=O)[C@H](O)[C@@H](NC(=O)c4ccccc4)c4ccccc4)C(C)=C1C3(C)C)[C@]1(OC(C)=O)CO[C@@H]1C[C@@H]2O [Paclitaxel]; settings: max 3 µM
Procedure, shortened: as §1

Palbociclib = compound: CC(=O)c1c(C)c2cnc(Nc3ccc(N4CCNCC4)cn3)nc2n(C2CCCC2)c1=O [Palbociclib]; settings: max 10 µM
Procedure, shortened: as §1

AZD1390 = compound: CC(C)n1c(=O)n(C)c2cnc3cc(F)c(-c4ccc(OCCCN5CCCCC5)nc4)cc3c21 [AZD1390]; settings: max 0.3 µM
Procedure, shortened: as §1

Venetoclax = compound: CC1(C)CCC(CN2CCN(c3ccc(C(=O)NS(=O)(=O)c4ccc(NCC5CCOCC5)c([N+](=O)[O-])c4)c(Oc4cnc5[nH]ccc5c4)c3)CC2)=C(c2ccc(Cl)cc2)C1 [Venetoclax]; settings: max 1 µM
Procedure, shortened: as §1

Dasatinib = compound: CC1=C(C(=CC=C1)Cl)NC(=O)C2=CN=C(S2)NC3=CC(=NC(=N3)C)N4CCN(CC4)CCO [Dasatinib]; settings: max 2 µM
Procedure, shortened: as §1

SG3199 = compound: CC1=CN2[C@@H](C1)C=NC3=CC(=C(C=C3C2=O)OC)OCCCCCOC4=C(C=C5C(=C4)N=C[C@@H]6CC(=CN6C5=O)C)OC [SG3199]; settings: max 0.001 µM
Procedure, shortened: as §1

AZD2811 = compound: CCN(CCO)CCCOc1ccc2c(Nc3cc(CC(=O)Nc4cccc(F)c4)[nH]n3)ncnc2c1 [AZD2811]; settings: max 1 µM
Procedure, shortened: as §1

SN-38 = compound: CCc1c2c(nc3ccc(O)cc13)-c1cc3c(c(=O)n1C2)COC(=O)[C@]3(O)CC [SN-38]; settings: max 0.3 µM
Procedure, shortened: as §1

AZD0156 = compound: CN(C)CCCOc1ccc(-c2ccc3ncc4c(c3c2)n(C2CCOCC2)c(=O)n4C)cn1 [AZD0156]
Procedure, shortened: as §1

AZD4320 = compound: CN(CC[C@H](CSC1=CC=CC=C1)NC2=C(C=C(C=C2)S(=O)(=O)NC(=O)C3=CC=C(C=C3)N4CCC(CC4)[C@H](C5=CC=CC=C5C6=CC=C(C=C6)Cl)O)S(=O)(=O)C(F)(F)F)CCO [AZD4320]; settings: max 1 µM
Procedure, shortened: as §1

Alisertib = compound: COc1cc(Nc2ncc3c(n2)-c2ccc(Cl)cc2C(c2c(F)cccc2OC)=NC3)ccc1C(=O)O [Alisertib]; settings: max 10 µM
Procedure, shortened: as §1

Etoposide = compound: COc1cc([C@@H]2c3cc4c(cc3[C@@H](O[C@@H]3O[C@@H]5CO[C@@H](C)O[C@H]5[C@H](O)[C@H]3O)[C@H]3COC(=O)[C@H]23)OCO4)cc(OC)c1O [Etoposide]; settings: max 10 µM
Procedure, shortened: as §1

Gefitinib = compound: COc1cc2ncnc(Nc3ccc(F)c(Cl)c3)c2cc1OCCCN1CCOCC1 [Gefitinib]; settings: max 10 µM
Procedure, shortened: as §1

Prexasertib = compound: COc1cccc(OCCCN)c1-c1cc(Nc2cnc(C#N)cn2)n[nH]1 [Prexasertib]; settings: max 1 µM
Procedure, shortened: as §1

Doxorubicin = compound: COc1cccc2c1C(=O)c1c(O)c3c(c(O)c1C2=O)C[C@@](O)(C(=O)CO)C[C@@H]3O[C@H]1C[C@H](N)[C@H](O)[C@H](C)O1 [Doxorubicin]; settings: max 1 µM
Procedure, shortened: as §1

AZD5153 = compound: COc1nnc2ccc(N3CCC(c4ccc(OCCN5CCN(C)C(=O)[C@H]5C)cc4)CC3)nn12 [AZD5153]; settings: max 1 µM
Procedure, shortened: as §1

Lapatinib = compound: CS(=O)(=O)CCNCc1ccc(-c2ccc3ncnc(Nc4ccc(OCc5cccc(F)c5)c(Cl)c4)c3c2)o1 [Lapatinib]; settings: max 10 µM
Procedure, shortened: as §1

AZD8186 = compound: C[C@@H](Nc1cc(F)cc(F)c1)c1cc(C(=O)N(C)C)cc2c(=O)cc(N3CCOCC3)oc12 [AZD8186]
Procedure, shortened: as §1

Crizotinib = compound: C[C@@H](Oc1cc(-c2cnn(C3CCNCC3)c2)cnc1N)c1c(Cl)ccc(F)c1Cl [Crizotinib]; settings: max 10 µM
Procedure, shortened: as §1

Savolitinib = compound: C[C@@H](c1ccc2nccn2c1)n1nnc2ncc(-c3cnn(C)c3)nc21 [Savolitinib]; settings: max 1 µM
Procedure, shortened: as §1

AZD6738 = compound: C[C@@H]1COCCN1C2=NC(=NC(=C2)C3(CC3)[S@](=N)(=O)C)C4=C5C=CNC5=NC=C4 [AZD6738]; settings: max 10 µM
Procedure, shortened: as §1

AZD5991 = compound: Cc1c2c(nn1C)CSCc1cc(n(C)n1)CSc1cc(c3ccccc3c1)OCCCc1c(C(=O)O)n(C)c3c-2c(Cl)ccc13 [AZD5991]; settings: max 1 µM
Procedure, shortened: as §1

AZD7648 = compound: Cc1cc2ncnn2cc1Nc1ncc2c(n1)n(C1CCOCC1)c(=O)n2C [AZD7648]; settings: max 10 µM
Procedure, shortened: as §1

Taselisib = compound: Cc1nc(-c2cn3c(n2)-c2ccc(-c4cnn(C(C)(C)C(N)=O)c4)cc2OCC3)n(C(C)C)n1 [Taselisib]; settings: max 10 µM
Procedure, shortened: as §1

Selumetinib = compound: Cn1cnc2c(F)c(Nc3ccc(Br)cc3Cl)c(C(=O)NOCCO)cc21 [Selumetinib]
Procedure, shortened: as §1

SRA737 = compound: N#Cc1cnc(Nc2cc(NC[C@H]3CNCCO3)c(C(F)(F)F)cn2)cn1 [SRA737]; settings: max 10 µM
Procedure, shortened: as §1

MK-2206 = compound: NC1(c2ccc(-c3nc4ccn5c(=O)[nH]nc5c4cc3-c3ccccc3)cc2)CCC1 [MK-2206]; settings: max 10 µM
Procedure, shortened: as §1

Gemcitabine = compound: Nc1ccn([C@@H]2O[C@H](CO)[C@@H](O)C2(F)F)c(=O)n1 [Gemcitabine]; settings: max 0.3 µM
Procedure, shortened: as §1

[1] = compound: O=C(Nc1ccc2[nH]nc(-c3ccncc3)c2c1)[C@@H]1CCN(CC(=O)N2CCN(c3ccc(-c4ncccn4)cc3)CC2)C1; settings: max 5 µM
Procedure, shortened: as §1

Olaparib = compound: O=C(c1cc(Cc2n[nH]c(=O)c3ccccc23)ccc1F)N1CCN(C(=O)C2CC2)CC1 [Olaparib]; settings: max 10 µM
Procedure, shortened: as §1

5-Fluorouracil = compound: O=c1[nH]cc(F)c(=O)[nH]1 [5-Fluorouracil]; settings: max 20 µM
Procedure, shortened: as §1

Capivasertib = compound: C1CN(CCC1(C(=O)N[C@@H](CCO)C2=CC=C(C=C2)Cl)N)C3=NC=NC4=C3C=CN4 [Capivasertib]
Procedure, shortened: as §1

Cell Line | IC50, cell viability 72 h (AZD1775; max 3 µM) | IC50, cell viability 72 h (Trametinib) | IC50, cell viability 72 h (Palbociclib) | IC50, cell viability 72 h (AZD1390) | IC50, cell viability 72 h (Venetoclax) | IC50, cell viability 72 h (Dasatinib) | IC50, cell viability 72 h (SG3199) | IC50, cell viability 72 h (AZD2811) | IC50, cell viability 72 h (SN-38) | IC50, cell viability 72 h (AZD0156; max 3 µM) | IC50, cell viability 72 h (AZD4320) | IC50, cell viability 72 h (Alisertib) | IC50, cell viability 72 h (Gefitinib) | IC50, cell viability 72 h (Prexasertib) | IC50, cell viability 72 h (Doxorubicin) | IC50, cell viability 72 h (AZD6738) | IC50, cell viability 72 h (AZD5991) | IC50, cell viability 72 h (AZD7648) | IC50, cell viability 72 h (Taselisib) | IC50, cell viability 72 h (Olaparib) | further results
HCT-116 (Colorectal Carcinoma) | 1.96 µM | 0.0163 µM | 8.69 µM | > 0.3 µM | > 1 µM | > 2 µM | > 0.001 µM | > 1 µM | 0.019 µM | > 3 µM | > 1 µM | 1.07 µM | > 10 µM | 0.635 µM | 0.218 µM | 6.97 µM | > 1 µM | > 10 µM | 2.17 µM | > 10 µM | IC50, cell viability 72 h (Carboplatin): > 10 µM; IC50, cell viability 72 h (AZD5363): > 10 µM; IC50, cell viability 72 h (Paclitaxel): 0.00324 µM; IC50, cell viability 72 h (Etoposide): 5.46 µM; IC50, cell viability 72 h (AZD5153): 0.244 µM; IC50, cell viability 72 h (Lapatinib): > 10 µM; IC50, cell viability 72 h (AZD8186; max 10 µM): > 10 µM; IC50, cell viability 72 h (Crizotinib): 2.76 µM; IC50, cell viability 72 h (Savolitinib): > 1 µM; IC50, cell viability 72 h (Selumetinib; max 10 µM): 2.5 µM; IC50, cell viability 72 h (SRA737): > 10 µM; IC50, cell viability 72 h (MK-2206): > 10 µM; IC50, cell viability 72 h (Gemcitabine): 0.0131 µM; IC50, cell viability 72 h [1]: 0.129 µM; IC50, cell viability 72 h (5-Fluorouracil): 10.6 µM
EKVX (Non-Small Cell Lung Carcinoma) | – | 0.747 µM | – | – | > 1 µM | – | > 0.001 µM | > 1 µM | > 0.3 µM | – | > 1 µM | > 10 µM | – | > 1 µM | > 1 µM | > 10 µM | > 1 µM | > 10 µM | > 10 µM | > 10 µM | IC50, cell viability 72 h (Capivasertib; max 3 µM): > 3 µM; IC50, cell viability 72 h (AZD1775; max 1 µM): > 1 µM; IC50, cell viability 72 h (AZD0156; max 1 µM): > 1 µM; IC50, cell viability 72 h (AZD8186; max 3 µM): > 3 µM; IC50, cell viability 72 h (Selumetinib; max 3 µM): > 3 µM
A172 (Glioblastoma) | > 3 µM | > 1 µM | > 10 µM | > 0.3 µM | > 1 µM | > 2 µM | > 0.001 µM | 0.708 µM | 0.0441 µM | > 3 µM | > 1 µM | 1.42 µM | > 10 µM | 0.367 µM | 0.189 µM | 9.49 µM | > 1 µM | > 10 µM | > 10 µM | > 10 µM | IC50, cell viability 72 h (Capivasertib; max 10 µM): > 10 µM; IC50, cell viability 72 h (AZD5153): > 1 µM; IC50, cell viability 72 h (Lapatinib): > 10 µM; IC50, cell viability 72 h (AZD8186; max 3 µM): > 3 µM; IC50, cell viability 72 h (Crizotinib): > 10 µM; IC50, cell viability 72 h (Savolitinib): > 1 µM; IC50, cell viability 72 h (Selumetinib; max 10 µM): > 10 µM
GDM-1 (Acute Myeloid Leukemia) | 0.435 µM | > 1 µM | 8.09 µM | > 0.3 µM | 0.392 µM | 0.00937 µM | > 0.001 µM | 0.0656 µM | 0.00415 µM | > 3 µM | 0.0834 µM | 0.123 µM | > 10 µM | 0.0402 µM | 0.326 µM | 7.15 µM | > 1 µM | 5.19 µM | 0.121 µM | > 10 µM | IC50, cell viability 72 h (Capivasertib; max 10 µM): 8.68 µM; IC50, cell viability 72 h (AZD5153): 0.0648 µM; IC50, cell viability 72 h (Lapatinib): > 10 µM; IC50, cell viability 72 h (AZD8186; max 3 µM): 1.94 µM; IC50, cell viability 72 h (Crizotinib): 1.16 µM; IC50, cell viability 72 h (Savolitinib): > 1 µM; IC50, cell viability 72 h (Selumetinib; max 10 µM): > 10 µM
